The values that follow come from ChEMBL document CHEMBL3758163, “Extended structure-activity study of thienopyrimidine-based EGFR inhibitors with evaluation of drug-like properties” (Eur J Med Chem, 2016).

The target in series [1] is Proto-oncogene tyrosine-protein kinase Src (Homo sapiens) (UniProt P12931). Nature of the series: Inhibition of SRC (unknown origin) at 500 nM.
In series [2] the target is Mitogen-activated protein kinase 14 (Homo sapiens) (UniProt Q16539). The series is described as follows: Inhibition of MAPK14 (unknown origin) at 500 nM.
Series [3] deals with Epidermal growth factor receptor (Homo sapiens, UniProt P00533). The series is described as follows: Inhibition of EGFR (unknown origin) by Z -LYTE assay.
Series [4] concerns the target Protein kinase C alpha type (Homo sapiens) (UniProt P17252). Nature of the series: Inhibition of PRKCA (unknown origin) at 500 nM.
Series [5] has as its target Serine/threonine-protein kinase pim-2 (Homo sapiens) (UniProt Q9P1W9). Nature of the series: Inhibition of PIM2 (unknown origin) at 500 nM.
Series [6] concerns the target Tyrosine-protein kinase Lyn (Homo sapiens) (UniProt P07948). Nature of the series: Inhibition of LYN B (unknown origin) at 500 nM.
For series [7], the target named is Tyrosine-protein kinase JAK2 (Homo sapiens) (UniProt O60674). The series is described as follows: Inhibition of JAK2 (unknown origin) at 500 nM.
Tyrosine-protein kinase JAK2 (Homo sapiens), sequence (O60674 whole entry): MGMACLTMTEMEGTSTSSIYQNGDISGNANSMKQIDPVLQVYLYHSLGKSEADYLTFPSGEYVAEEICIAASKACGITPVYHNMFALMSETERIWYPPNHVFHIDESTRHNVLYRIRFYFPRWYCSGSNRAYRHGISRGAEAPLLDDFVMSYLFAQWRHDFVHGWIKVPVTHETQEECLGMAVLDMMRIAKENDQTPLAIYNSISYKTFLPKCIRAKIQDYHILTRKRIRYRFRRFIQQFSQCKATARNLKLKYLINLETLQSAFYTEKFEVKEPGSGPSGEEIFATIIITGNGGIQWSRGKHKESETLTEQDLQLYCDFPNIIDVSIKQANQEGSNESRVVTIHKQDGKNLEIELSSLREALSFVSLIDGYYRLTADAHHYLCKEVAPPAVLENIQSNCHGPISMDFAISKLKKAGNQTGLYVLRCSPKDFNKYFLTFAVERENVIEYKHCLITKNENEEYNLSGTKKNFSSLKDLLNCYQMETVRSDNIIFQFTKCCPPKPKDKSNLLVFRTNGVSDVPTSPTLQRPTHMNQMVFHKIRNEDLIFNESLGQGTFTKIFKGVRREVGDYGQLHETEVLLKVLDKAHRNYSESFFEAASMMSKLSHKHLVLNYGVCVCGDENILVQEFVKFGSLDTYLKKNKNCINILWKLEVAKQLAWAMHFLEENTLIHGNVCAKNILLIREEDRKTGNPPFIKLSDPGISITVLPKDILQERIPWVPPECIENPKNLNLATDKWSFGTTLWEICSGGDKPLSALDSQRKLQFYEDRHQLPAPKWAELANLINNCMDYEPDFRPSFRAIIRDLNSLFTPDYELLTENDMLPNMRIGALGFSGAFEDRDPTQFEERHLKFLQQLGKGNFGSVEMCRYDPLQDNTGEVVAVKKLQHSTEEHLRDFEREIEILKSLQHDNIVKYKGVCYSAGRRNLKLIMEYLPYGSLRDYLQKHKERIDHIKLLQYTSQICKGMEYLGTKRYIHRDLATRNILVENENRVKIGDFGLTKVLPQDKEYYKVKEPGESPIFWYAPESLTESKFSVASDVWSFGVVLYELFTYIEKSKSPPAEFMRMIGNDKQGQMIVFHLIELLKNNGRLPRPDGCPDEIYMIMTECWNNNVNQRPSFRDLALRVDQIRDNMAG
Series [8] concerns the target Tyrosine-protein kinase HCK (Homo sapiens) (UniProt P08631). The series is described as follows: Inhibition of HCK (unknown origin) at 500 nM.
Series [9] concerns the target T1, Inhibitor of nuclear factor kappa-B kinase subunit beta (Homo sapiens) (UniProt O14920).
T1 sequence (whole entry): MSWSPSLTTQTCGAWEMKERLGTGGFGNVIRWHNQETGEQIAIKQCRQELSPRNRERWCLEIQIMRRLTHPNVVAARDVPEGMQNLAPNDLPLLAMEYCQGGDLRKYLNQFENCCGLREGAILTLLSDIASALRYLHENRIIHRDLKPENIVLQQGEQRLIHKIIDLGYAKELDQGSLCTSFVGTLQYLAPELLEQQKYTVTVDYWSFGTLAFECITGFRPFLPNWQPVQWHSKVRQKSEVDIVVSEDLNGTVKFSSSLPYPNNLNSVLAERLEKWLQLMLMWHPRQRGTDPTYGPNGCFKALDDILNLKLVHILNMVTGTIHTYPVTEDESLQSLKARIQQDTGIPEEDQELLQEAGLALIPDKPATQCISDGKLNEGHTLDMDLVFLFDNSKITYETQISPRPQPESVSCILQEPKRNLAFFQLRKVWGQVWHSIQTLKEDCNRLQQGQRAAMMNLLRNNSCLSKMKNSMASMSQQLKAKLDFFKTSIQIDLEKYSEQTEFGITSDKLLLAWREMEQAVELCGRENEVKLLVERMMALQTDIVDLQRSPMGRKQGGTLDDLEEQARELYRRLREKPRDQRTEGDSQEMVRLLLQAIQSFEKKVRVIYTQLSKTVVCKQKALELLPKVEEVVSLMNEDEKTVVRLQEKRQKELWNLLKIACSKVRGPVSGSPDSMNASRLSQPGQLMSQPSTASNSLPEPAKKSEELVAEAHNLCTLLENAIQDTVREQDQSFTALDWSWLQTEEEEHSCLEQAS
Nature of the series: Inhibition of IKBKB (unknown origin) at 500 nM.

Series [10] deals with Angiopoietin-1 receptor (Homo sapiens) (UniProt Q02763). Nature of the series: Inhibition of TEK (unknown origin) at 500 nM.
For series [11], the target named is Dual specificity mitogen-activated protein kinase kinase 1 (Homo sapiens) (UniProt Q02750). The series is described as follows: Inhibition of MAP2K1 (unknown origin) at 500 nM.
Dual specificity mitogen-activated protein kinase kinase 1 (Homo sapiens), sequence (Q02750 whole entry): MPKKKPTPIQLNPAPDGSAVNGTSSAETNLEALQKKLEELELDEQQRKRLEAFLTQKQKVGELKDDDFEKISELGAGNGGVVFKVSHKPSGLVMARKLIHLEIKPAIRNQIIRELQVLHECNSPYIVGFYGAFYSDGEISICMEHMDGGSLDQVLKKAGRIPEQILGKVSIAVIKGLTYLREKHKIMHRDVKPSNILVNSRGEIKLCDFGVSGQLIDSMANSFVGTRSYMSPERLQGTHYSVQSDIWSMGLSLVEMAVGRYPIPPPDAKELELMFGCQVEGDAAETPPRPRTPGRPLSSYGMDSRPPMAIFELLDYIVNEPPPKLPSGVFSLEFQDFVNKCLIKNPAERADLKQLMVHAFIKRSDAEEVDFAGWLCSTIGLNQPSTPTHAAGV
In series [12] the target is T2, Testis-specific serine/threonine-protein kinase 2 (Homo sapiens) (UniProt Q96PF2).
T2 sequence (whole entry): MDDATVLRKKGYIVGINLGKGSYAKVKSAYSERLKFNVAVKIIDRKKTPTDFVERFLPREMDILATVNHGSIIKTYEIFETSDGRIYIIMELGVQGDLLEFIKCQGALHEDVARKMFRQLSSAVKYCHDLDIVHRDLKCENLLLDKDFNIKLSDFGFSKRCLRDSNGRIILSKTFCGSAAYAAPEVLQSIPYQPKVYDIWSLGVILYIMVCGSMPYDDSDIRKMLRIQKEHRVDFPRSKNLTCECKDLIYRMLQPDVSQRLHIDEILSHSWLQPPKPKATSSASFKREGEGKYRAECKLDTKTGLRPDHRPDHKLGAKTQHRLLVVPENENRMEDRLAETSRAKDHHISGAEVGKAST
The series is described as follows: Inhibition of STK22B (unknown origin) at 500 nM.

The target of series [13] is Tyrosine-protein kinase Fyn (Homo sapiens) (UniProt P06241). Nature of the series: Inhibition of FYN (unknown origin) at 500 nM.
The target in series [14] is Mitogen-activated protein kinase 8 (Homo sapiens) (UniProt P45983). The series is described as follows: Inhibition of MAPK8 (unknown origin) at 500 nM.
Mitogen-activated protein kinase 8 (Homo sapiens), sequence (P45983 whole entry): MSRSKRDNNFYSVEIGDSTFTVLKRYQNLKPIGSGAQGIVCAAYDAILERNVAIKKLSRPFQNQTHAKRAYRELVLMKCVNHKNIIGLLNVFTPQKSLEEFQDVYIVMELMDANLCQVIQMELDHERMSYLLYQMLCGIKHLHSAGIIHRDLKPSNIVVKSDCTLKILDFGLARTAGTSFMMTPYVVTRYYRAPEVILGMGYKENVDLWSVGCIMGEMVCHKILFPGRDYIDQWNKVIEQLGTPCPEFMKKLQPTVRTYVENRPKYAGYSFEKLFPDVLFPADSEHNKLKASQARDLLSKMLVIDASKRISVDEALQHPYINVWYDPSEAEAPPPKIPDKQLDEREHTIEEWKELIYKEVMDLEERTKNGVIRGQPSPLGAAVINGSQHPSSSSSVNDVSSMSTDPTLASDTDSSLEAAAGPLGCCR
For series [15], the target named is Insulin-like growth factor 1 receptor (Homo sapiens) (UniProt P08069). Nature of the series: Inhibition of IGF1R (unknown origin) at 500 nM.
Series [16] concerns the target Tyrosine-protein kinase CSK (Homo sapiens) (UniProt P41240). The series is described as follows: Inhibition of CSK (unknown origin) at 500 nM.
Series [17] addresses T3, Serine/threonine-protein kinase Chk1 (Homo sapiens) (UniProt O14757).
T3 sequence (whole entry): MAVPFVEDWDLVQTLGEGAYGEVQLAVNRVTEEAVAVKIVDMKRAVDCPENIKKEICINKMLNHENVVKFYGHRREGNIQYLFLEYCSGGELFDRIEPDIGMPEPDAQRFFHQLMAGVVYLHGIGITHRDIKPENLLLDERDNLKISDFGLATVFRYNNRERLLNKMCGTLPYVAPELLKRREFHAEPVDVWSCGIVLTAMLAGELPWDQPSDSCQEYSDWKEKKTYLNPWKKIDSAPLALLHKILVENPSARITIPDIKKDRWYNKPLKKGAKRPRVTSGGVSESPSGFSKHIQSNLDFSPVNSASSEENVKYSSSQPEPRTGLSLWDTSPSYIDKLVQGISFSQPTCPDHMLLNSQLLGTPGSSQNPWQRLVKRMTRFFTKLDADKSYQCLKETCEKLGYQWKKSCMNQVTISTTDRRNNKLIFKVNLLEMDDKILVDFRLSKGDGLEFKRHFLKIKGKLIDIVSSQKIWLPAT
Nature of the series: Inhibition of CHEK1 (unknown origin) at 500 nM.

The target of series [18] is Tyrosine-protein kinase SYK (Homo sapiens) (UniProt P43405). The series is described as follows: Inhibition of SYK (unknown origin) at 500 nM.
Series [19] addresses Protein kinase C theta type (Homo sapiens) (UniProt Q04759). Nature of the series: Inhibition of PRKCQ (unknown origin) at 500 nM.
Series [20] addresses Vascular endothelial growth factor receptor 1 (Homo sapiens) (UniProt P17948). Nature of the series: Inhibition of FLT1 (unknown origin) at 500 nM.
For series [21], the target named is Tyrosine-protein kinase ABL1 (Homo sapiens) (UniProt P00519). The series is described as follows: Inhibition of ABL1 (unknown origin) at 500 nM.
The nature of series [22]: Half-life in human liver microsomes at 3 uM by LC-MS/MS analysis. The format is ADME. A general note: Liver microsomes are vesicles of endoplasmic reticulum, rich in cytochrome P450 enzymes.
The target of series [23] is Hepatocyte growth factor receptor (Homo sapiens) (UniProt P08581). Nature of the series: Inhibition of MET (unknown origin) at 500 nM.
Hepatocyte growth factor receptor (Homo sapiens), sequence (P08581 whole entry): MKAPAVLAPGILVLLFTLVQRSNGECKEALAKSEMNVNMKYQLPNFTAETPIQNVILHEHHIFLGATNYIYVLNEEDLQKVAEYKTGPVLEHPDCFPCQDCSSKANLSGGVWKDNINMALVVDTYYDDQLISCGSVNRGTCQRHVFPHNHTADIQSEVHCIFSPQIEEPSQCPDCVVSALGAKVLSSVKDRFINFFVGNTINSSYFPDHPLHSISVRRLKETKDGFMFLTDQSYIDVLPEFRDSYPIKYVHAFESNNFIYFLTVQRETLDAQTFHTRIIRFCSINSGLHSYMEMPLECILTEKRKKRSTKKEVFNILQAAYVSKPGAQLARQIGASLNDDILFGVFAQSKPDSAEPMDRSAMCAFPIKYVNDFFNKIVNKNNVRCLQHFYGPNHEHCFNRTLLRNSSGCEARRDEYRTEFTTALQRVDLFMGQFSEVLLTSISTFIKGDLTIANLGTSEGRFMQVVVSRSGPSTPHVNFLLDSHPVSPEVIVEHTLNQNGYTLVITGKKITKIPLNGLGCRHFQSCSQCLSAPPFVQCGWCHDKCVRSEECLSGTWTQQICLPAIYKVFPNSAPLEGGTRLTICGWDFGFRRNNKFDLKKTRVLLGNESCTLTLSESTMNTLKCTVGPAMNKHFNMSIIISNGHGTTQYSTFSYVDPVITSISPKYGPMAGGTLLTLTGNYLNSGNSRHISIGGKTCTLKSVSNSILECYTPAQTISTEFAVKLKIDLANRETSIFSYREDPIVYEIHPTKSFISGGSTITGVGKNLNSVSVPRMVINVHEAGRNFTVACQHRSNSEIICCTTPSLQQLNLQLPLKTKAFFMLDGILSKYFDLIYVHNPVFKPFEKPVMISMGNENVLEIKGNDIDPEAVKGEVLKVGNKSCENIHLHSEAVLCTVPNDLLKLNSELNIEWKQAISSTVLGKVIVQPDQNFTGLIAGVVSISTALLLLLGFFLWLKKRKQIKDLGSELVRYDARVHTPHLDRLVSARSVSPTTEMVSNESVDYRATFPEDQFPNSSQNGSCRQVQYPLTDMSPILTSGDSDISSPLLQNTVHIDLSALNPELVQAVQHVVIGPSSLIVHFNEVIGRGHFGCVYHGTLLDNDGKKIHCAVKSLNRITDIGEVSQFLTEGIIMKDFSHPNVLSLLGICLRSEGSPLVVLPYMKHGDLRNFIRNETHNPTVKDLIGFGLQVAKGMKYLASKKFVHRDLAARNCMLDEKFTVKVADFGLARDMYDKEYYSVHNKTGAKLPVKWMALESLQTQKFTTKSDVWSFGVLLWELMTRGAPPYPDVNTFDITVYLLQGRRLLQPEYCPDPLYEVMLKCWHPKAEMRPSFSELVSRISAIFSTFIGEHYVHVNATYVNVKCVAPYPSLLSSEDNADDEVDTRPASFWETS

Structures are written as SMILES.

Tyrosine-protein kinase Lyn (Homo sapiens), sequence (P07948 2-512 limits assumed): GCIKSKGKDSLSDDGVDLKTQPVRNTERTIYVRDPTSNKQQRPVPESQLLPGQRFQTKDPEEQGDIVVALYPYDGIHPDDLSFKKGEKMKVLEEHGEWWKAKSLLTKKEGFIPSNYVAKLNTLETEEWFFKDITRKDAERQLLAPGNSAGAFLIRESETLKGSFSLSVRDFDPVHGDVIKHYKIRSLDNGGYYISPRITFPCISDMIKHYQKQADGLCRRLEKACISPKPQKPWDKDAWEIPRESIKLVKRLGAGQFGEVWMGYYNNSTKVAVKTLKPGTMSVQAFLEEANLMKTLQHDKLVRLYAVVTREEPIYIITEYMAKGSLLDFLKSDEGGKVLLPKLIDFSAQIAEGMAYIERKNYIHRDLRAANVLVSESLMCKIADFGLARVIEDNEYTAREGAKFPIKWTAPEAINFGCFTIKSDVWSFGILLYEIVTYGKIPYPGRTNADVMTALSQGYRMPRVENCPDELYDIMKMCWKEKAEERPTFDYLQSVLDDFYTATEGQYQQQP
Serine/threonine-protein kinase pim-2 (Homo sapiens), sequence (Q9P1W9 whole entry, looked up): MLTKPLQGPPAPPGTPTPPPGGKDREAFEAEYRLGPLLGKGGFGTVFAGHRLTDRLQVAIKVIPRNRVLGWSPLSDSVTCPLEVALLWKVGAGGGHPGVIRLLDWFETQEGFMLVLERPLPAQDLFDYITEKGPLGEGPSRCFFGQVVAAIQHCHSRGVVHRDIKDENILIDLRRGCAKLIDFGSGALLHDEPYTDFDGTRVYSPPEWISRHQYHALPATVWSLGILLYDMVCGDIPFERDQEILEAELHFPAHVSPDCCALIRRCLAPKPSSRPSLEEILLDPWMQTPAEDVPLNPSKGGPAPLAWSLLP
Proto-oncogene tyrosine-protein kinase Src (Homo sapiens), sequence (P12931 2-536 limits assumed): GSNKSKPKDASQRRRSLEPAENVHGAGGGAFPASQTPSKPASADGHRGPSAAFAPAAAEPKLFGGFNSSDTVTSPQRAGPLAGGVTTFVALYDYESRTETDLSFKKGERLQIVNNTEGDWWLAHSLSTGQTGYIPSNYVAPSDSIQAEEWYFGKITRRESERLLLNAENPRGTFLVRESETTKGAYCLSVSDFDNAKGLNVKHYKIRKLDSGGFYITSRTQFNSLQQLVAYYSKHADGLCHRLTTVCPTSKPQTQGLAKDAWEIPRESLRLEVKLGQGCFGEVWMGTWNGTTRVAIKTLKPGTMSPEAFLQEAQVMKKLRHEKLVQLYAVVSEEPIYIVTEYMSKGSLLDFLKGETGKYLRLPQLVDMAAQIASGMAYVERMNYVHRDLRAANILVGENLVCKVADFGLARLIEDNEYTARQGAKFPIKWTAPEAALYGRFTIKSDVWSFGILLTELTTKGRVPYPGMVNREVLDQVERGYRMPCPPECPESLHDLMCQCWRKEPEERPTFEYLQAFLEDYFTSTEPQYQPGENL

The term inhibition denotes the change of the read-out against control, counted positive when it falls. Broadly, the IC50 is the concentration needed to halve the response being measured. The low end stands for inhibition by little substance, the high end for a need for much substance. In the case of `C[C@@H](Nc1ncnc2sc(-c3ccccc3C(N)=O)cc12)c1ccccc1`, the inhibition was 12% in series [1]; 9% in series [2]; 8% in series [4]; 0% in series [5]; 16% in series [6]; -8% in series [7]. The inhibition in [8] is 2%; in series [9] it was 6%; in [10] it was 0%; in series [11] it was 3%; in series [12], 5%; in series [13], 7%. Further, the inhibition in series [14] was 26%; in series [15], -6%; in [16], 12%; in [17], -4%; in series [18], 6%; in series [19], -1%. Also, the inhibition was 4% in series [20] and -5% in series [21]. In addition, in series [3], the IC50 was found to be 276 nM.
Broadly, the half-life is how long it takes for the measured level to halve. As for `COc1cc(C(N)=O)ccc1-c1cc2c(N[C@H](CO)c3ccccc3)ncnc2s1`, the inhibition in series [1] is 20%; in series [2], 6%; in series [23], -5%; in [4], -4%; in series [5], 11%; in [6] it was 57%. Also, the inhibition is -2% in [7]; 13% in series [8]; 3% in series [9]; 7% in [10]; 10% in [11]; 11% in series [12]. Also, the inhibition in series [13] was 16%; in series [14] it was 42%; in series [15], -9%; in series [16] it was 12%; in series [18], 17%; in series [19] it was -2%. Besides, the results for the inhibition in [20] and in series [21] were 0% and 4%, respectively. In series [22], this compound returned a half-life at 3 µM of 5.13 h. Half-maximal inhibition in series [3] (IC50) was put at 1.5 nM.
With `COc1cc(CO)ccc1-c1cc2c(Nc3ccc(F)c(Cl)c3)ncnc2s1`, the inhibition in series [1] was 14%; in series [2], 6%; in series [23] it was -5%; in series [4] it was 2%; in [5], 6%; in series [6], 15%. In addition, the inhibition in series [7] is -3%; in series [8] it was 15%; in series [9], 1%; in series [10], 11%; in [11], 12%; in series [12], 1%. Besides, the inhibition in [13] was 5%; in series [14], 14%; in [15] it was -3%; in series [16] it was 15%; in [18], 11%; in [19], 3%. The inhibition in series [20] is 2%; in series [21], 19%. For the same compound, the half-life at 3 µM in series [22] stood at 2.6 h. The compound further returned an IC50 in series [3] of 2 nM.
Turning to `COc1cc(CO)ccc1-c1cc2c(Nc3ccccc3)ncnc2s1`, the inhibition in [1] is 17%; in series [2], 8%; in series [23], 7%; in series [4] it was -1%; in series [5], 5%; in series [6], 22%. The inhibition in series [7] was -2%; in series [8], 28%; in [9], 4%; in series [10] it was 8%; in series [11], 15%; in series [12], 9%. For the same compound, the inhibition in [13] was 6%; in series [14], 17%; in series [15], -3%; in series [16] it was 18%; in [18], 38%; in series [19], -10%. For the same compound, the inhibition in series [20] was found to be 9%; in [21], 20%. The IC50 in series [3] is 14 nM.
